Where “and” joins values, the source holds several entries; their conditions need not be identical. Equal values may be shown once. Toxic doses and inconclusive results are not listed.

This assay concerns L1210 leukemia ip in BDF1 mice, survival T/C. Description: NCI In Vivo Anticancer Drug Screen. Data for tumor model L1210 Leukemia (intraperitoneal) in B6D2F1 (BDF1) mice. Particulars: endpoint: mean survival time, higher = longer survival. A digest of the protocol:
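Read-out is survival time, reported as the treated-group measurement over the vehicle-control measurement.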

The mark [1] stands for this setting: dose: 100.0 mg/kg/injection, schedule: Q01DX009 (ip), vehicle: Klucel (hydroxypropylcellulose) (HPC).
Where [2] appears, read: dose: 200.0 mg/kg/injection, schedule: Q01DX009 (ip), vehicle: Klucel (hydroxypropylcellulose) (HPC).
[3] abbreviates: dose: 400.0 mg/kg/injection, schedule: Q01DX009 (ip), vehicle: Klucel (hydroxypropylcellulose) (HPC).
Setting [4] is: dose: 100.0 mg/kg/injection, schedule: Q04DX003 (ip), vehicle: Klucel (hydroxypropylcellulose) (HPC).
Where [5] appears, read: dose: 400.0 mg/kg/injection, schedule: Q04DX003 (ip), vehicle: Klucel (hydroxypropylcellulose) (HPC).
[6] abbreviates: dose: 6.25 mg/kg/injection, schedule: Q01DX009 (ip), vehicle: saline.
Setting [7] is: dose: 6.25 mg/kg/injection, schedule: Q04DX003 (ip), vehicle: saline.
Where [8] appears, read: dose: 12.5 mg/kg/injection, schedule: Q01DX009 (ip), vehicle: saline.
[9] abbreviates: dose: 12.5 mg/kg/injection, schedule: Q04DX003 (ip), vehicle: saline.
[10] abbreviates: dose: 25.0 mg/kg/injection, schedule: Q01DX009 (ip), vehicle: saline.
[11] abbreviates: dose: 25.0 mg/kg/injection, schedule: Q04DX003 (ip), vehicle: saline.
[12] abbreviates: dose: 100.0 mg/kg/injection, schedule: Q01DX001 (ip), vehicle: saline.
Setting [13] is: dose: 200.0 mg/kg/injection, schedule: Q04DX003 (ip), vehicle: Klucel (hydroxypropylcellulose) (HPC).

For `c1ccc2c(c1)cc[n+]1c3ccccc3ccc21`, the T/C was 97 % of control (dose: 1.25 mg/kg/injection, schedule: Q01DX001 (ip), vehicle: saline); 97 % of control (dose: 2.5 mg/kg/injection, schedule: Q01DX001 (ip), vehicle: saline); 103 % of control (dose: 5.0 mg/kg/injection, schedule: Q01DX001 (ip), vehicle: saline); 107 % of control (dose: 10.0 mg/kg/injection, schedule: Q01DX001 (ip), vehicle: saline).

As for `CN(C)c1ccc(/C=N/NC(=O)C(O)C(O)C(O)C(O)CO)cc1` (configuration not stated), the T/C under setting [1] is 97 % of control, the T/C under setting [2] was 96 % of control and the T/C under setting [3] is 102 % of control.

Consider `COc1ccc(OC)c(NC(=O)N(CCO)C2CCCCC2)c1`, for which the T/C is, setting by setting: under setting [4], 90 % of control; under setting [5], 97 % of control.

As for `CC(C)(C)NCCCN1CC1(C)C` (configuration not stated), the T/C under setting [6] was 90 % of control; the T/C under setting [7] was 103 % of control; the T/C under setting [8] is 93 % of control; the T/C under setting [9] is 114 % of control; the T/C under setting [10] is 93 % of control and 121 % of control; the T/C under setting [11] was 117 % of control. The T/C under setting [12] was 110 % of control.

Consider `CCC1(O)CC2CN(CCc3c([nH]c4ccccc34)C(C(=O)OC)(c3cc4c(cc3OC)N(C)C3C(O)(C(=O)NCCSSCCNC(=O)C5(O)C(O)C6(CC)C=CCN7CCC8(c9cc(C%10(C(=O)OC)CC%11CN(CCc%12c%10[nH]c%10ccccc%12%10)CC(O)(CC)C%11)c(OC)cc9N(C)C58)C76)C(O)C5(CC)C=CCN6CCC43C65)C2)C1` (configuration not stated), for which the T/C (dose: 1800.0 micrograms/kg/injection, schedule: Q04DX003 (ip), vehicle: saline) was 154 % of control and the T/C (dose: 3000.0 micrograms/kg/injection, schedule: Q04DX003 (ip), vehicle: saline) was 119 % of control.

`OCc1cccs1`: the T/C reads like this: under setting [1], 108 % of control; under setting [4], 97 % of control; under setting [2], 94 % of control; under setting [13], 97 % of control; under setting [3], 103 % of control; under setting [5], 97 % of control.

As for `Clc1ccc(N=Nc2ccccn2)cc1`, the T/C was 101 % of control (dose: 100.0 mg/kg/injection, schedule: Q04DX002 (ip), vehicle: Klucel (hydroxypropylcellulose) (HPC)); 96 % of control (dose: 200.0 mg/kg/injection, schedule: Q04DX002 (ip), vehicle: Klucel (hydroxypropylcellulose) (HPC)); 93 % of control (dose: 400.0 mg/kg/injection, schedule: Q04DX002 (ip), vehicle: Klucel (hydroxypropylcellulose) (HPC)).

As for `CC(=O)OC1CCC2(C)C(CCC3C4CCC(C(C)OC(C)=O)C4NC(=O)CC32)C1` (configuration not stated), the T/C (dose: 75.0 mg/kg/injection, schedule: Q01DX001 (ip), vehicle: other) was 104 % of control; the T/C (dose: 150.0 mg/kg/injection, schedule: Q01DX001 (ip), vehicle: other) is 101 % of control; the T/C (dose: 300.0 mg/kg/injection, schedule: Q01DX001 (ip), vehicle: other) was 93 % of control.

As for `COc1cc(N=C(N)N=C(N)N)c2ncccc2c1`, the T/C (dose: 75.0 mg/kg/injection, schedule: Q01DX001 (ip), vehicle: carboxymethylcellulose (CMC)) is 97 % of control.

With `Cc1cc2nc3c(N)ccc(N)c3nc2cc1N`, the T/C was 97 % of control (dose: 100.0 mg/kg/injection, schedule: Q04DX002 (ip), vehicle: saline with Tween-80); 97 % of control (dose: 200.0 mg/kg/injection, schedule: Q04DX002 (ip), vehicle: saline with Tween-80); 105 % of control (dose: 400.0 mg/kg/injection, schedule: Q04DX002 (ip), vehicle: saline with Tween-80).

On to `O=C1C[N+]2(CCCCC2)c2ccc(Cl)cc2N1`, for which the T/C is, setting by setting: under setting [6], 87 % of control; under setting [7], 91 % of control; under setting [8], 92 % of control; under setting [9], 91 % of control; under setting [10], 95 % of control; under setting [11], 93 % of control.

On to `COc1ccc(S(=O)(=O)NCCC#N)cc1NC(C)=O`, for which the T/C was 95 % of control (dose: 100.0 mg/kg/injection, schedule: Q01DX001 (ip), vehicle: Klucel (hydroxypropylcellulose) (HPC)); 96 % of control (dose: 100.0 mg/kg/injection, schedule: Q01DX009 (ip), vehicle: saline sonified); 97 % of control (dose: 200.0 mg/kg/injection, schedule: Q01DX001 (ip), vehicle: Klucel (hydroxypropylcellulose) (HPC)); 96 % of control (dose: 200.0 mg/kg/injection, schedule: Q01DX009 (ip), vehicle: saline sonified); 97 % of control (dose: 400.0 mg/kg/injection, schedule: Q01DX001 (ip), vehicle: Klucel (hydroxypropylcellulose) (HPC)); 107 % of control (dose: 400.0 mg/kg/injection, schedule: Q01DX009 (ip), vehicle: saline sonified).

Turning to `CC1C2CC(C3(C)OCCO3)CCC2(C)CCC12OCCO2` (configuration not stated), the T/C under setting [4] was 101 % of control, the T/C under setting [13] is 106 % of control and the T/C under setting [5] is 106 % of control.

Take `Nc1nc(N)c(-c2ccc(Cl)c(Cl)c2)c(CCc2ccc(CNC(=O)c3cc(S(=O)(=O)F)ccc3Cl)cc2)n1`: the T/C reads like this: (dose: 100.0 mg/kg/injection, schedule: Q01DX001 (ip), vehicle: saline with Tween-80) 97 % of control; (dose: 200.0 mg/kg/injection, schedule: Q01DX001 (ip), vehicle: saline with Tween-80) 94 % of control; (dose: 400.0 mg/kg/injection, schedule: Q01DX001 (ip), vehicle: saline with Tween-80) 94 % of control.

Consider `CS(=O)(=O)c1nc(N)nc2nc[nH]c12`, for which the T/C reads like this: (dose: 7.5 mg/kg/injection, schedule: Q01DX Z (ip), vehicle: methylcellulose (MC)) 95 % of control; (dose: 10.0 mg/kg/injection, schedule: Q01DX001 (ip), vehicle: carboxymethylcellulose (CMC)) 101 % of control; under setting [8], 109 % of control; (dose: 15.0 mg/kg/injection, schedule: Q01DX Z (ip), vehicle: methylcellulose (MC)) 115 % of control; under setting [10], 100 % of control; (dose: 30.0 mg/kg/injection, schedule: Q01DX Z (ip), vehicle: methylcellulose (MC)) 117 % of control. In addition, the T/C (dose: 50.0 mg/kg/injection, schedule: Q01DX001 (ip), vehicle: saline) is 95 % of control; the T/C (dose: 50.0 mg/kg/injection, schedule: Q01DX009 (ip), vehicle: saline) is 102 % of control; the T/C (dose: 50.0 mg/kg/injection, schedule: Q04DX003 (ip), vehicle: saline) was 98 % of control; the T/C (dose: 60.0 mg/kg/injection, schedule: Q01DX Z (ip), vehicle: carboxymethylcellulose (CMC)) was 119 % of control; the T/C (dose: 60.0 mg/kg/injection, schedule: Q01DX Z (ip), vehicle: methylcellulose (MC)) is 123 % of control; the T/C (dose: 75.0 mg/kg/injection, schedule: Q01DX Z (ip), vehicle: methylcellulose (MC)) is 120 % of control. The T/C under setting [12] was 101 % of control; the T/C (dose: 100.0 mg/kg/injection, schedule: Q01DX009 (ip), vehicle: saline) was 97 % of control; the T/C (dose: 100.0 mg/kg/injection, schedule: Q04DX003 (ip), vehicle: saline) is 93 % of control; the T/C (dose: 200.0 mg/kg/injection, schedule: Q01DX001 (ip), vehicle: carboxymethylcellulose (CMC)) is 100 % of control; the T/C (dose: 200.0 mg/kg/injection, schedule: Q01DX001 (ip), vehicle: saline) was 117 % of control; the T/C (dose: 200.0 mg/kg/injection, schedule: Q01DX009 (ip), vehicle: saline) was 103 % of control. Also, the T/C (dose: 200.0 mg/kg/injection, schedule: Q04DX003 (ip), vehicle: saline) is 98 % of control.

Take `CCn1cnc2c(SC(C)C)ncnc21`: the T/C is, setting by setting: (dose: 16.0 mg/kg/injection, schedule: Q01DX Z (ip), vehicle: carboxymethylcellulose (CMC)) 95 % of control; (dose: 31.0 mg/kg/injection, schedule: Q01DX Z (ip), vehicle: carboxymethylcellulose (CMC)) 101 % of control; (dose: 62.0 mg/kg/injection, schedule: Q01DX Z (ip), vehicle: carboxymethylcellulose (CMC)) 107 % of control.

As to `Cc1cc(N(CCCOS(C)(=O)=O)CCCOS(C)(=O)=O)ccc1C=Nc1cccc(Br)c1`, the T/C is 96 % of control (dose: 100.0 mg/kg/injection, schedule: Q01DX009 (ip), vehicle: saline with Tween-80); 94 % of control (dose: 200.0 mg/kg/injection, schedule: Q01DX009 (ip), vehicle: saline with Tween-80); 91 % of control (dose: 400.0 mg/kg/injection, schedule: Q01DX009 (ip), vehicle: saline with Tween-80).

The values are drawn from PubChem BioAssay AID248 (DTP/NCI, 2004).
